Assay results taken from US4575504A, “Thienothiazole derivatives” (Dr. Karl Thomae GmbH, priority 1982, dated 1986).
Counter-ions that a name gives are not always drawn.

Assays:
[1] = Acute toxicity in mice after oral or intravenous administration; conditions: mouse, in vivo, observation period 14 days
Procedure: The acute toxicity was determined in mice after oral or intravenous administration (observation period: 14 days): […]

[2] = system: postsynaptic α-adrenoceptors; test: Effect on postsynaptic α-adrenoceptors: increase in blood pressure in the spinal rat; assay type: in vivo; conditions: dosage which increased arterial blood pressure by 30 mmHg, i.v.
Procedure: 3. Effect on postsynaptic α-adrenoceptors: Increase in blood pressure in the spinal rat Method: The increase in blood pressure occurring after the stimulation of postsynaptic α-adrenoreceptors is measured in the spinal rat. Description of test: Male rats weighing from 200 to 250 g were anesthetized (1.2 g/kg of urethane i.p., 1 mg/kg of atropine s.c.). Then the central canal of the spinal cord was opened up. The spinal cord was severed at C1, and the medulla oblongata and the brain were destroyed with a metal probe. The animals were artificially ventilated; a polyethylene catheter was secured in a jugular vein, and the blood pressure was recorded from an A. carotis by means of a Statham element on a Grass polygraph. The dosage (D30) which increased the arterial blood pressure by 30 mmHg was determined.

[3] = system: presynaptic α-adrenoceptors; test: Effect on presynaptic α-adrenoceptors: inhibition of electrically triggered tachycardia in the spinal rat; assay type: in vivo; conditions: dosage which inhibits electrically induced tachycardia by 50%, i.v.
From the text: 2. Effect on presynaptic α-adrenoceptors: Inhibition of electrically triggered tachycardia Method: At the adrenergic nerve ending there is an autoregulating system for the relase of noradrenaline. The stimulation of presynaptic α-adrenoreceptors has an inhibiting effect on the release of noradrenaline and thus restricts adrenergic neurotransmission. Accordingly, if these "feedback receptors" are stimulated, the effect of a given adrenergic stimulation on the responding organ can be attenuated. In the electrically stimulated spinal rat, the tachycardia induced electrically in the heart is attenuated by substances with a presynaptic α-mimetic activity. Description of the test: Male rats weighing from 350 to 400 g were anesthetized with pentobarbital (50 mg/kg i.p.), vagotomized, treated with atropine (1 mg/kg s.c.) and fitted with a tracheal cannula. After enucleation of one eye, the orbits were pierced, the brain was destroyed, and a metal rod was pushed through the vertebral canal. The animals were artificially ventilated and pre-treated with gallamine (4 mg/kg i.v.). The metal rod used was 2.5 mm in diameter and was insulated (stove-enamelled). […] The blood pressure was measured at an A. carotis by means of an electromechanical pressure transducer. The pulse wave triggered a tachograph which continuously recorded the heart rate. Both signals were recorded on a multi-channel recorder.

intact anesthetized rat [4] = test: Effect on blood pressure and heart rate in the intact anesthetized rat after intravenous injection; assay type: in vivo; conditions: 3 mg/kg i.v.
Procedure: 1. Effect on blood pressure and heart rate Method: Changes in circulation after intravenous injection of the test substance were recorded in the intact anesthetized rat. Male rats weighing 200 g were anesthetized with pentobarbital (50 mg/kg i.p.). The animals breathed spontaneously through a tracheal cannula secured in position. The blood pressure was measured at an A. carotis using an electromechanical pressure transducer; the pulse wave triggered a tachograph which recorded the heart rate continuously. Both parameters were recorded on the polygraph. The test substance was injected into a V. jugularis through a catheter. The test substances, when administered at a dosage of 3 mg/kg i.v., produced a brief initial increase in blood pressure followed by a longer-lasting reduction in pressure.

intact anesthetized rat [5] = test: as above; assay type: in vivo; conditions: 1.5 mg/kg i.v.

With `CCN1CCc2sc3nc(N)sc3c2CC1.Cl.Cl` [A, 7-ethyl-2-amino-6,7,8,9-tetrahydro-5H-thiazolo[4',5':5,4]thieno[2,3-d]azepine dihydrochloride] the LD50 at 336 h ([1]; intravenous) was 34 mg/kg, the LD50 at 336 h ([1]; oral) was 320 mg/kg and the “Blood pressure-increasing activity, D30” value [2] was 145 μg/kg i.v. For the same compound, the “Inhibition of electrically induced tachycardia, D50” value [3] was 290 μg/kg i.v, the “Blood pressure, depressor phase (maximum value)” value (from here on “Blood pressure, depressor phase”) (intact anesthetized rat [4]) was -18 mm Hg and the “Blood pressure, pressor phase (maximum value)” value (shortened to “Blood pressure, pressor phase”) (intact anesthetized rat [4]) was “+52 mm Hg”. The “Lowering of heart rate (maximum value)” value (intact anesthetized rat [4]) was -90 beats/minute.
With `CC(C)N1CCc2sc3nc(N)sc3c2CC1.Cl.Cl` [Compound D, 2-amino-6,7,8,9-tetrahydro-7-isopropyl-5H-thiazolo[4',5':5,4]thieno[2,3-d]azepine dihydrochloride] the “Blood pressure, depressor phase” value (intact anesthetized rat [4]) was -20 mm Hg, the “Blood pressure, pressor phase” value (intact anesthetized rat [4]) was “+23 mm Hg” and the “Lowering of heart rate (maximum value)” value (intact anesthetized rat [4]) was -78 beats/minute.
In the case of `CCCN1CCc2c(sc3nc(N)sc23)C1.Cl.Cl` [F, 2-amino-5,6,7,8-tetrahydro-6-propyl-thiazolo[4',5':5,4]thieno[2,3-c]pyridine dihydrochloride], the LD50 at 336 h ([1]; oral) is reported as greater than 300 mg/kg, the “Blood pressure, depressor phase” value (intact anesthetized rat [4]) is reported as -12 mm Hg and the “Blood pressure, pressor phase” value (intact anesthetized rat [4]) is reported as “+16 mm Hg”. The “Lowering of heart rate (maximum value)” value (intact anesthetized rat [4]) was -65 beats/minute.
For `Cl.Cl.Nc1nc2sc3c(c2s1)CCNCC3` [H, 2-Amino-6,7,8,9-tetrahydro-5H-thiazolo[4',5':5,4]thieno[2,3-d]azepine dihydrochloride], the “Blood pressure-increasing activity, D30” value [2] was 0.36 mg/kg i.v, the “Blood pressure, depressor phase” value (intact anesthetized rat [5]) was -34 mm Hg and the “Blood pressure, pressor phase” value (intact anesthetized rat [5]) was “+38 mm Hg”. The “Lowering of heart rate (maximum value)” value (intact anesthetized rat [5]) was -100 beats/minute.
For `CN1CCc2c(sc3nc(N)sc23)C1.Cl.Cl` [G, 2-amino-5,6,7,8-tetrahydro-6-methyl-thiazolo[4',5':5,4]thieno[2,3-c]pyridine dihydrochloride], the “Blood pressure, depressor phase” value (intact anesthetized rat [4]) was -30 mm Hg, the “Blood pressure, pressor phase” value (intact anesthetized rat [4]) was “+46 mm Hg” and the “Lowering of heart rate (maximum value)” value (intact anesthetized rat [4]) was -95 beats/minute.
For `CCN1CCc2c(sc3nc(N)sc23)C1` [E, 6-ethyl-2-amino-5,6,7,8-tetrahydro-thiazolo[4',5':5,4]thieno[2,3c]pyridine dihydrochloride], the “Blood pressure, depressor phase” value (intact anesthetized rat [4]) was -29 mm Hg, the “Blood pressure, pressor phase” value (intact anesthetized rat [4]) was “+30 mm Hg” and the “Lowering of heart rate (maximum value)” value (intact anesthetized rat [4]) was -108 beats/minute.
In the case of `Nc1nc2sc3c(c2s1)CCN(Cc1ccccc1)CC3` [B, 2-amino-7-benzyl-6,7,8,9-tetrahydro-5H-thiazolo[4',5':5,4]thieno[2,3d]azepine], the “Blood pressure, depressor phase” value (intact anesthetized rat [4]) is reported as -25 mm Hg and the “Lowering of heart rate (maximum value)” value (intact anesthetized rat [4]) is reported as -95 beats/minute.
With `C=CCN1CCc2sc3nc(N)sc3c2CC1.Cl.Cl` [C, 7-allyl-2-amino-6,7,8,9-tetrahydro-5H-thiazolo[4',5':5,4]thieno[2,3-d]azepine dihydrochloride] the “Blood pressure, depressor phase” value (intact anesthetized rat [4]) was -15 mm Hg, the “Blood pressure, pressor phase” value (intact anesthetized rat [4]) was “+17 mm Hg” and the “Lowering of heart rate (maximum value)” value (intact anesthetized rat [4]) was -150 beats/minute.
